Results reported in patent US20230071441A1, “CIGARETTE FILTER CONTAINING NATURAL PLANT MATERIAL, PREPARATION METHOD THEREOF, AND CIGARETTE INCLUDING THE FILTER” (KT & G Corporation, priority 2019, published 2023).

Legend:
[1] = Methyl mercaptan reducing ability (deodorizing activity), headspace GC/MS; conditions: methyl mercaptan 1 μg/ml 2 ml, pH 7.5, 42 degrees C. 6 minutes; powders/granules 10 mg in 2 ml water; oil/flavoring liquid 2 ml; single ingredient 3 ppm
Procedure: Using the cigarette prepared in Example 24-1, an experiment was conducted to identify reducing ability for the methyl mercaptan as a representative halitosis ingredient in the cigarette smoke.
Pine needle and rosemary based powders, granules, oils, and flavoring liquid, as well as pine needle based fragrance carrying ingredients, that is, alpha-pinene, bonyl acetate, and rosemary based fragrance carrying ingredients, that is, 1,8-cineol, and borneol were added to the cigarette filter. Thus, a cigarette including the cigarette filter was prepared to identify methyl mercaptan reducing ability.
A content of methyl mercaptan as used was 1 ppm [1 μg/ml] 2 ml. When the pine needle and rosemary based powders and granules were used, 10 mg of the sample was extracted with 2 ml of water and was used. In one example, when using the oil and flavoring liquid based on pine needle and rosemary, 2 ml thereof was used. As for a single ingredient, 3 ppm (3 μg/ml) of the sample was extracted with 2 ml of water and was used.
The analysis experiment of reducing ability for methyl mercaptan included a pretreatment process of the sample, and the analysis process under the headspace sampler condition and the GC/MS-SIM condition. First, 10 mg of pine needle and rosemary based powders and granules sample were put into a 20 ml vial, which was immersed in 2 ml of water for 1 hour. Next, 2 ml of 0.2 M potassium phosphate was added thereto and the pH was adjusted to 7.5. Thereafter, 2 ml of methyl mercaptan (1 μg/ml) was added thereto and the vial was sealed, followed by stirring with a Vortex mixer for 5 seconds. In the headspace sampler, reaction occurred at 42 degrees C. for 6 minutes, and methyl mercaptan isolated into headspace was directly analyzed via GC/MS. An area of methyl mercaptan obtained as a result of the GC/MS analysis was compared with that of the control to determine the reduction percentage.
Deodorizing Activity (DA, %)=[C−S]/C×100 • C: methyl mercaptan area of control • S: Methyl mercaptan area of test group • See Tokita, F. et al. Nippon Nogeikagaku Kaishi 58(6), p 585 to 589 [1984].
The GC/MS instrument based analysis conditions were set as follows. Headspace Sampler conditions were set as follows: culture temperature: 42 degrees C., culture duration: 6 minutes, and transfer liner temperature: 100 degrees C.
The GC/MS-SIM conditions were set as follows: DB-624(60 m, 0.25 mm, 0.25 um) column was used; Oven Temp: 35 degrees C. for 10 minutes; post run: 250 degrees C. for 30 minutes. Injector/Interface Temp was 150 degrees C. or 220 degrees C. For injection, Split 10:1, flow rate 1 ml/min, methyl mercaptan ion (m/z): quantitative ion 47; and qualitative ion 48 and 45. […]

[2] = tested on: halitosis ingredient (Hydrogen sulfide) derived from oral microbes; assay: Sedimentation of halitosis ingredient by absorbance analysis (FeS, 700 nm) in cultured saliva; format: cell-based, oral bacteria in saliva; conditions: cultured saliva 0.5 ml, FeSO4, 24 hours 37 degrees C. anaerobic, absorbance 700 nm
Procedure: Using the cigarette prepared in Example 24-1, the sedimentation of halitosis ingredient thereof was measured via absorbance analysis. To this end, an experiment was conducted to identify the reducing ability for the halitosis ingredient derived from oral microbes when smoking the cigarette with the filter having the pine needle and rosemary based substances added thereto.
The experiment for measuring the sedimentation of halitosis ingredients was as follows. Hydrogen sulfide in a volatile sulfur compound as mouth odor ingredient generated when cultivating oral bacteria in saliva was combined with iron in a liquid state such that iron sulfide (FeS) in a form of a black precipitate occurred. Thus, the sedimentation of halitosis ingredient was analyzed. First, whole saliva was incubated for 48 hours at 37 degrees C. under anaerobic conditions. Then, […] of oil based test substance or 20 μl of a single ingredient was added to 0.5 ml cultured saliva. 0.05 g surfactant was added thereto. The salvia was mixed with 0.05 g ferrous sulfate II (FeSO4). The mixture was incubated for 24 hours at 37 degrees C. under anaerobic conditions. Thus, absorbance of the culture was measured at 700 nm to determine sedimentation of halitosis ingredients.
However, there was a limit in the detection in the direct analysis of cigarette due to the difference in smoking amount.

SMILES	Methyl mercaptan Reducing ability (%) [1]	Halitosis ingredient (Hydrogen sulfide) Reducing ability (%) [2]
CC1(C)C2CCC1(C)C(O)C2 (centres unmarked) [Borneol]	30.7%	45.0%
CC12CCC(CC1)C(C)(C)O2 [1,8-Cineol]	51.9%	37.0%
CC1=CCC2CC1C2(C)C (stereo not drawn) [α-Pinene]	54.7%	50.0%
CC(=O)O[C@@H]1C[C@@H]2CC[C@@]1(C)C2(C)C [Bonyl acetate]	41.7%	36.0%
